Reference: patent US9518018B2, “3-alkoxy, thioalkyl and amino-4-amino-6-(substituted)picolinates and their use as herbicides” (Dow AgroSciences LLC, priority 2011, dated 2016)

System: desired test plant species
Experiment: Foliar-applied postemergence herbicidal activity in direct seeded rice (Table 6)
Format: in vivo
Conditions: 21 DAA
Source text: Seeds or nutlets of the desired test plant species were planted in a soil matrix prepared by mixing a loam soil (43 percent silt, 19 percent clay, and 38 percent sand, with a pH of about 8.1 and an organic matter content of about 1.5 percent) and river sand in an 80 to 20 ratio. The soil matrix was contained in plastic pots with a surface area of 139.7 cm^2. When required to ensure good germination and healthy plants, a fungicide treatment and/or other chemical or physical treatment was applied. The plants were grown for 10-17 d in a greenhouse with an approximate 14-h photoperiod which was maintained at about 29° C. during the day and 26° C. during the night. Nutrients and water were added on a regular basis and supplemental lighting was provided with overhead metal halide 1000-Watt lamps as necessary. The plants were employed for testing when they reached the second or third true leaf stage. Treatments consisted of compounds 45, 34, and 66. Weighed amounts of technical compounds were placed in individual 25 mL glass vials and dissolved in 8 mL of 97:3 v/v acetone-DMSO to obtain stock solutions. […] The spray application solutions were prepared by removing 4 mL of the stock solution and diluting with 4 mL of 97:3 v/v acetone-DMSO and continued serial dilution to obtain 1⁄2×, 1⁄4×, 1⁄8×, and 1/16× rates of the high rate. Spray solutions were diluted to the appropriate final concentrations with the addition of 8 mL of an aqueous mixture of 1.875% (v/v) Agri-dex crop oil concentrate. The final 12-mL spray solutions each contained 1.25% (v/v) Agri-dex crop oil concentrate, 32.3% acetone, and 1.0% DMSO. Compound requirements are based upon a 12 mL application volume at a rate of 187 L/ha. Spray solutions were applied to the plant material with an overhead Mandel track sprayer equipped with […] nozzles calibrated to deliver 187 L/ha over an application area of 0.503 square meters (m^2) at a spray height of 18 inches ([…]) above average plant canopy height. Control plants were sprayed in the same manner with the solvent blank. The treated plants and control plants were placed in a greenhouse as described above and watered by sub-irrigation to prevent wash-off of the test compounds. After approximately 3 weeks, the condition of the test plants, compared with that of the untreated plants, was determined visually and scored on a scale of 0 to 100 percent where 0 corresponds to no injury and 100 corresponds to complete kill. By applying the well-accepted probit analysis as described by J. Berkson in Journal of the […], 48, 565 (1953) and by D. Finney in “Probit Analysis” Cambridge University Press (1952) or by plotting the mean data and fitting a logarithmic curve to the portion of the data where there was a dose response using Microsoft Excel®, the above data can be used to calculate GR50 and GR90 values, which are defined as growth reduction factors that correspond to the effective dose of herbicide required to kill or control 50 percent or 90 percent, respectively, of a target plant.

SMILES: COc1c(C(=O)OCc2ccccc2)nc(-c2ccc(Cl)c(OC)c2F)c(F)c1N [Compound 66, benzyl 4-amino-6-(4-chloro-2-fluoro-3-methoxyphenyl)-5-fluoro-3-methoxypicolinate]
- Mean Visual Injury (%)-21 Days After Application AESSE (AESSE (Aeschynomene sensitiva, sensitive jointvetch), 4.38 g ae/ha): 100%
- Mean Visual Injury (%)-21 Days After Application AESSE (AESSE (Aeschynomene sensitiva, sensitive jointvetch), 8.75 g ae/ha): 100%
- Mean Visual Injury (%)-21 Days After Application AESSE (AESSE (Aeschynomene sensitiva, sensitive jointvetch), 17.5 g ae/ha): 100%
- Mean Visual Injury (%)-21 Days After Application AESSE (AESSE (Aeschynomene sensitiva, sensitive jointvetch), 35 g ae/ha): 100%
- Mean Visual Injury (%)-21 Days After Application AESSE (AESSE (Aeschynomene sensitiva, sensitive jointvetch), 70 g ae/ha): 100%
- GR50 AESSE (AESSE (Aeschynomene sensitiva, sensitive jointvetch), dose to kill or control 50 percent): <4.38 g ae/ha
- GR90 AESSE (AESSE (Aeschynomene sensitiva, sensitive jointvetch), dose to kill or control 90 percent): <4.38 g ae/ha
- Mean Visual Injury (%)-21 Days After Application BRAPP (BRAPP (Brachiaria platyphylla, broadleaf signalgrass), 2.19 g ae/ha): 53%
- Mean Visual Injury (%)-21 Days After Application BRAPP (BRAPP (Brachiaria platyphylla, broadleaf signalgrass), 4.38 g ae/ha): 72%
- Mean Visual Injury (%)-21 Days After Application BRAPP (BRAPP (Brachiaria platyphylla, broadleaf signalgrass), 8.75 g ae/ha): 83%
- Mean Visual Injury (%)-21 Days After Application BRAPP (BRAPP (Brachiaria platyphylla, broadleaf signalgrass), 17.5 g ae/ha): 90%
- Mean Visual Injury (%)-21 Days After Application BRAPP (BRAPP (Brachiaria platyphylla, broadleaf signalgrass), 35 g ae/ha): 87%
- Mean Visual Injury (%)-21 Days After Application BRAPP (BRAPP (Brachiaria platyphylla, broadleaf signalgrass), 70 g ae/ha): 93%
- GR50 BRAPP (BRAPP (Brachiaria platyphylla, broadleaf signalgrass), dose to kill or control 50 percent): <2.19 g ae/ha
- GR90 BRAPP (BRAPP (Brachiaria platyphylla, broadleaf signalgrass), dose to kill or control 90 percent): 34.4 g ae/ha
- Mean Visual Injury (%)-21 Days After Application CYPDI (CYPDI (Cyperus difformis, small-flower flatsedge), 2.19 g ae/ha): 70%
- Mean Visual Injury (%)-21 Days After Application CYPDI (CYPDI (Cyperus difformis, small-flower flatsedge), 4.38 g ae/ha): 91%
- Mean Visual Injury (%)-21 Days After Application CYPDI (CYPDI (Cyperus difformis, small-flower flatsedge), 8.75 g ae/ha): 96%
- Mean Visual Injury (%)-21 Days After Application CYPDI (CYPDI (Cyperus difformis, small-flower flatsedge), 17.5 g ae/ha): 100%
- Mean Visual Injury (%)-21 Days After Application CYPDI (CYPDI (Cyperus difformis, small-flower flatsedge), 35 g ae/ha): 99%
- Mean Visual Injury (%)-21 Days After Application CYPDI (CYPDI (Cyperus difformis, small-flower flatsedge), 70 g ae/ha): 97%
- GR50 CYPDI (CYPDI (Cyperus difformis, small-flower flatsedge), dose to kill or control 50 percent): <2.19 g ae/ha
- GR90 CYPDI (CYPDI (Cyperus difformis, small-flower flatsedge), dose to kill or control 90 percent): 6.6 g ae/ha
- Mean Visual Injury (%)-21 Days After Application CYPES (CYPES (Cyperus esculentus, yellow nutsedge), 2.19 g ae/ha): 60%
- Mean Visual Injury (%)-21 Days After Application CYPES (CYPES (Cyperus esculentus, yellow nutsedge), 4.38 g ae/ha): 67%
- Mean Visual Injury (%)-21 Days After Application CYPES (CYPES (Cyperus esculentus, yellow nutsedge), 8.75 g ae/ha): 93%
- Mean Visual Injury (%)-21 Days After Application CYPES (CYPES (Cyperus esculentus, yellow nutsedge), 35 g ae/ha): 94%
- Mean Visual Injury (%)-21 Days After Application CYPES (CYPES (Cyperus esculentus, yellow nutsedge), 70 g ae/ha): 95%
- GR50 CYPES (CYPES (Cyperus esculentus, yellow nutsedge), dose to kill or control 50 percent): <2.19 g ae/ha
- GR90 CYPES (CYPES (Cyperus esculentus, yellow nutsedge), dose to kill or control 90 percent): 13.1 g ae/ha
- Mean Visual Injury (%)-21 Days After Application CYPIR (CYPIR (Cyperus iria, rice flatsedge), 2.19 g ae/ha): 43%
- Mean Visual Injury (%)-21 Days After Application CYPIR (CYPIR (Cyperus iria, rice flatsedge), 4.38 g ae/ha): 81%
- Mean Visual Injury (%)-21 Days After Application CYPIR (CYPIR (Cyperus iria, rice flatsedge), 8.75 g ae/ha): 99%
- Mean Visual Injury (%)-21 Days After Application CYPIR (CYPIR (Cyperus iria, rice flatsedge), 17.5 g ae/ha): 100%
- Mean Visual Injury (%)-21 Days After Application CYPIR (CYPIR (Cyperus iria, rice flatsedge), 35 g ae/ha): 100%
- Mean Visual Injury (%)-21 Days After Application CYPIR (CYPIR (Cyperus iria, rice flatsedge), 70 g ae/ha): 99%
- GR50 CYPIR (CYPIR (Cyperus iria, rice flatsedge), dose to kill or control 50 percent): 2.4 g ae/ha
- GR90 CYPIR (CYPIR (Cyperus iria, rice flatsedge), dose to kill or control 90 percent): 6.4 g ae/ha
- Mean Visual Injury (%)-21 Days After Application ECHCG (ECHCG (Echinochloa crus-galli, barnyardgrass), 2.19 g ae/ha): 78%
- Mean Visual Injury (%)-21 Days After Application ECHCG (ECHCG (Echinochloa crus-galli, barnyardgrass), 4.38 g ae/ha): 86%
- Mean Visual Injury (%)-21 Days After Application ECHCG (ECHCG (Echinochloa crus-galli, barnyardgrass), 8.75 g ae/ha): 95%
- Mean Visual Injury (%)-21 Days After Application ECHCG (ECHCG (Echinochloa crus-galli, barnyardgrass), 17.5 g ae/ha): 96%
- Mean Visual Injury (%)-21 Days After Application ECHCG (ECHCG (Echinochloa crus-galli, barnyardgrass), 35 g ae/ha): 97%
- Mean Visual Injury (%)-21 Days After Application ECHCG (ECHCG (Echinochloa crus-galli, barnyardgrass), 70 g ae/ha): 95%
- GR50 ECHCG (ECHCG (Echinochloa crus-galli, barnyardgrass), dose to kill or control 50 percent): <42.19 g ae/ha
- GR90 ECHCG (ECHCG (Echinochloa crus-galli, barnyardgrass), dose to kill or control 90 percent): 8.3 g ae/ha
- Mean Visual Injury (%)-21 Days After Application ECHCO (ECHCO (Echinochloa colonum, junglerice), 2.19 g ae/ha): 62%
